Test: Nitric oxide release profile of NONOates (nitric oxide analyzer)
Assay type: physicochemical
Method: Using a Monitor Labs Model 8440 Nitric Oxide Analyzer, interfaced with an HP 3396 A Chromatography Integrator, the nitric oxide release from the above synthesized NONOates was measured. […] Teflon® flow meters were inserted at the beginning of the circuit just before entry into the analyzer, and a helium tank with regulator was connected to the first flow meter.
The release profile was performed by adding about 3 to about 8 mg of the NO donor molecules prepared above to 25 ml of phosphate-buffered saline (PBS) (pH 7.4) in an impinger bottle that was subjected to continuous stirring. Varying amounts of the lung surfactant Survanta was added to certain samples, as were the surfactants Tween® 20 and Tween® 80. Tween® is available from Fisher Scientific Company, Fair Lawn, N.J. Still in other examples, the NONOates were simply dissolved in THF. Although the NONOates are insoluble in aqueous solution, sonication pulverized the compound adequately to produce fine particles that increased the surface area of the compound allowing a suspension to form. Once the impinger bottle was assembled, it was held in a water sonicator bath and sonicated until the insoluble sample was pulverized into fine particles or an emulsion. The amount of liberated NO was determined by the daily or timely flushing of helium through the solution and into the analyzer. Typically, measurements were taken every 2-4 hours during the first 18 hours and then every 12 hours thereafter. Eventually, readings only needed to be taken every 24 hours as the end of the release profile was approached. Helium gas was flushed through the system at 12 psig and the first flow meter was set to 150 ml/min. The second flow meter was adjusted to allow maximum flow. The released data was then used to compile the release profiles represented in FIGS. 3-10. The release profiles as represented in FIGS. 3-10 depict NO release from the NONOates in nmol NO/mg NONOate versus time in hours.
Based on these release profiles, the half-life and % Release for each NONOate prepared above was calculated and is represented in Table I, which represents NO release in PBS at pH 7.4.

Compound | % Release (NO) (PBS, pH 7.4) | half-life (1% survanta, half-life (NO release)) | half-life (5% & 10% survanta, half-life (NO release)) | half-life (5% tween 20, half-life (NO release)) | half-life (10% tween 20, half-life (NO release)) | half-life (NO release) (pbs, pH 7.4) | half-life (pbs, pH 7.4, half-life (NO release)) | half-life (thf, pH 1, half-life (NO release))
Dihexadecanylspermate-NONOate [DiHSNO] | about 7.4% |  |  |  |  |  |  | 
CC(C)CCC[C@@H](C)[C@H]1CC[C@H]2[C@@H]3CC=C4C[C@@H](OC(=O)CCN(CCCCN)[N+]([O-])=NO)CC[C@]4(C)[C@H]3CC[C@]12C [CPNO, Cholesterylputreanine-NONOate] |  | 62 h | 39 h | 104 h | 72 h | about 60 hr | 60 h | 21 h

From patent US6147068A, “Lipophilic polyamine esters for the site specific delivery of nitric oxide in pharmaceutical use” (The University of Akron, priority 1998, dated 2000)
